Experimental data as given in article PMC6356585 (Viruses, 2018).
Structures can show the parent of a compound that is named as a salt. Where two headings read alike, the source gives them in different places.

What was measured:
ZIKV SPH = test: Autophagy compound library screen, ZIKV SPH titer (TCID50) in C6/36 cells; assay type: cell-based, Zika virus; details: 10 µM compound, MOI 0.1, 96 h, TCID50, ± SEM, three independent trials; for activity at 10 µM: Zika virus, C6/36, read-out: ZIKV SPH Relative Titer in C6/36 Cells
Vero cells = test: Cell viability (CellTiter-Glo) of Vero cells; assay type: cell-based
C6/36 cells = assay type: cell-based, Ae. albopictus
[1] = 10 µM compound, 40 h, CellTiter-Glo, ± SEM, three independent trials
[2] = 10 µM compound, 96 h, CellTiter-Glo, ± SEM, three independent trials

Row | Compound | activity at 10 µM (ZIKV SPH) [%] | Vero Viability (Vero cells; [1]) | C6/36 Viability (C6/36 cells; [2]) | Vero Viability (Vero cells; 10 µM) | C6/36 Viability (C6/36 cells; 10 µM) | other results
1 | O=c1cc(N2CCOCC2)oc2c(-c3ccccc3)cccc12 [LY294002] | 548 ± 221 | 56.0 ± 6% of untreated control | 97 ± 17.2% of untreated control | – | – | –
2 | c1ccc2c(-c3ccncc3)c[nH]c2c1 [Rockout] | 96.2 ± 44.2 | – | – | 87.7 ± 3.8% of untreated control | 76 ± 5.2% of untreated control | –
3 | CCN(CC)CCNC(=O)c1c(C)[nH]c(/C=C2\C(=O)Nc3ccc(Cl)cc32)c1C [SU11652] | 0 | – | – | 1.0 ± 0% of untreated control | 1 ± 0% of untreated control | –
4 | Cn1cc(C2=C(c3ccc(Cl)cc3Cl)C(=O)NC2=O)c2ccccc21 [SB-216763] | 54 ± 21.7 | – | 63 ± 3.6% of untreated control | 80.0 ± 9% of untreated control | – | –
5 | C[C@H]1CC[C@@]2(OC1)O[C@H]1C[C@H]3[C@@H]4CC[C@@H]5C[C@@H](O[C@@H]6O[C@H](CO)[C@H](O)[C@H](O)[C@H]6O[C@@H]6O[C@H](CO)[C@@H](O)[C@H](O)[C@H]6O)CC[C@]5(C)[C@H]4CC[C@]3(C)[C@H]1[C@@H]2C [Timosaponin A-III] | 13 ± 5.2 | – | 67 ± 3.6% of untreated control | 38.7 ± 11.9% of untreated control | – | –
6 | Oc1cccc(-c2nc(N3CCOCC3)c3oc4ncccc4c3n2)c1 [PI-103] | 46.2 ± 13.3 | – | – | 43.7 ± 6.4% of untreated control | 39 ± 8.9% of untreated control | –
7 | Cn1c(=O)c2c(ncn2C)n(C)c1=O [Caffeine] | 138 ± 37.7 | 104.7 ± 8.6% of untreated control | 83 ± 4.6% of untreated control | – | – | –
8 | CC(=O)c1c(O)c(C)c(O)c(Cc2c(O)c3c(c(C(=O)/C=C/c4ccccc4)c2O)OC(C)(C)C=C3)c1O [Rottlerin] | 30.3 ± 16.9 | 80.7 ± 8.5% of untreated control | 40 ± 8.4% of untreated control | – | – | –
9 | O=c1[nH]c2ccccc2n1C1CCN(CCCC(c2ccc(F)cc2)c2ccc(F)cc2)CC1 [Pimozide] | 109 ± 22 | – | 49 ± 3.6% of untreated control | 90.0 ± 5.7% of untreated control | – | –
10 | CN(C)C(=N)N=C(N)N [Metformin·HCl] | – | – | 64 ± 10.3% of untreated control | 92.3 ± 4.2% of untreated control | – | –
11 | Nc1cc(N2CCCCC2)nc(N)[n+]1[O-] [Minoxidil] | 146 ± 16.6 | – | 72 ± 2.6% of untreated control | 96.3 ± 3.2% of untreated control | – | –
12 | O=C(Nc1ccc([N+](=O)[O-])cc1Cl)c1cc(Cl)ccc1O [Niclosamide] | 0.1 | – | 2 ± 0.3% of untreated control | 29.7 ± 3.8% of untreated control | – | –
13 | C=C(C)[C@H]1Cc2c(ccc3c2O[C@@H]2COc4cc(OC)c(OC)cc4[C@@H]2C3=O)O1 [Rotenone] | 0.1 ± 0.1 | 61.3 ± 7.7% of untreated control | 17 ± 5.8% of untreated control | – | – | –
14 | N[C@H]1C(O)O[C@H](CO)[C@@H](O)[C@@H]1O (stereo partly shown) [Glucosamine HCl] | 242 ± 45.8 | – | 88 ± 5.2% of untreated control | 99.3 ± 1.9% of untreated control | – | –
15 | CCOC(=O)C1=C(C)NC(C)=C(C(=O)OC)C1c1cccc([N+](=O)[O-])c1 (stereo not shown) [Nitrendipine] | 220 ± 44.4 | 88.7 ± 1.9% of untreated control | 62 ± 10.5% of untreated control | – | – | –
16 | CCCC(CCC)C(=O)O [Sodium Valproate] | 111 ± 20.7 | – | 111 ± 6.2% of untreated control | 92.7 ± 1.2% of untreated control | – | –
17 | Oc1ccc(-c2nc(-c3ccncc3)c(-c3ccc(F)cc3)[nH]2)cc1 [SB202190] | 25.9 ± 7.4 | – | – | 74.3 ± 5.2% of untreated control | 44 ± 7.9% of untreated control | –
18 | Cc1ccc(S(=O)(=O)NC(=O)NN2CCCCCC2)cc1 [Tolazamide] | 120 ± 33.7 | – | 113 ± 7.3% of untreated control | 99.0 ± 1.5% of untreated control | – | –
19 | O=C(/C=C/c1cccnc1)NCCCCC1CCN(C(=O)c2ccccc2)CC1 [FK-866] | 92.7 ± 32.4 | – | – | 32.7 ± 2.7% of untreated control | 48 ± 5.5% of untreated control | –
20 | CC/C(=C(\c1ccccc1)c1ccc(OCCN(C)C)cc1)c1ccccc1 [Tamoxifen citrate] | 8.2 ± 7.3 | – | 32 ± 11.9% of untreated control | 60.7 ± 18.4% of untreated control | – | –

Row | Compound | activity at 10 µM (ZIKV SPH) [%] | Vero Viability (Vero cells; [1]) | C6/36 Viability (C6/36 cells; [2]) | Vero Viability (Vero cells; 10 µM) | C6/36 Viability (C6/36 cells; 10 µM) | other results
21 | NCCCCNCCCN [Spermidine] | 90.2 ± 57.4 | – | – | 78.0 ± 17% of untreated control | 70 ± 3% of untreated control | –
22 | C/C=C(/C)C(=O)O[C@H]1C(C)=C2[C@H]([C@@H]1OC(=O)CCCCCCC)[C@@](C)(OC(C)=O)C[C@H](OC(=O)CCC)[C@@]1(O)[C@H]2OC(=O)[C@@]1(C)O [Thapsigargin] | 0 | – | – | 38.0 ± 10.5% of untreated control | 23 ± 3.9% of untreated control | –
23 | COc1cc(/C=C/C(=O)CC(=O)/C=C/c2ccc(O)c(OC)c2)ccc1O [Curcumin] | 0.3 ± 0.2 | – | 3 ± 0.7% of untreated control | 75.3 ± 11.3% of untreated control | – | –
24 | Cn1nnc2c(C(N)=O)ncn2c1=O [Temozolomide] | 219 ± 49.8 | – | – | 104.7 ± 1.9% of untreated control | 113 ± 9.2% of untreated control | –
25 | CN[C@@H]1C[C@H]2O[C@@](C)([C@@H]1OC)n1c3ccccc3c3c4c(c5c6ccccc6n2c5c31)C(=O)NC4 [Staurosporine] | 0 | 14.0 ± 1.5% of untreated control | 16 ± 5.3% of untreated control | – | – | –
26 | O=CC[C@@H](O)[C@H](O)[C@H](O)CO [2-Deoxyglucose] | 109 ± 61.2 | – | 73 ± 1% of untreated control | 98.7 ± 0.9% of untreated control | – | –
27 | COc1cc(CNC(=O)CCCC/C=C/C(C)C)ccc1O [Capsaicin] | 48.1 ± 12 | 91.7 ± 2.4% of untreated control | 66 ± 7.2% of untreated control | – | – | –
28 | Oc1ccc(/C=C/c2cc(O)cc(O)c2)cc1 [Resveratrol] | 155 ± 62 | – | 81 ± 7.5% of untreated control | 87.3 ± 2.3% of untreated control | – | –
29 | COC1=C2C[C@@H](C)C[C@H](OC)[C@H](O)[C@@H](C)/C=C(\C)[C@H](OC(N)=O)[C@@H](OC)/C=C\C=C(/C)C(=O)NC(=CC1=O)C2=O [Geldanamycin] | 25.8 ± 14.5 | – | 45 ± 5.8% of untreated control | 61.3 ± 5.7% of untreated control | – | –
30 | Cc1ccc(NC(=O)c2ccc(CN3CCN(C)CC3)cc2)cc1Nc1nccc(-c2cccnc2)n1 [Imatinib mesylate] | 5.3 ± 2.2 | – | 19 ± 5.4% of untreated control | – | – | –
31 | C=C[C@@]1(C)CC(=O)[C@]2(O)[C@@]3(C)[C@@H](O)CCC(C)(C)[C@@H]3[C@H](O)[C@H](OC(C)=O)[C@@]2(C)O1 [Forskolin] | 302 ± 18.3 | – | – | 74.7 ± 3.7% of untreated control | 94 ± 12% of untreated control | –
32 | CCN(CC)CCCC(C)Nc1ccnc2cc(Cl)ccc12 (stereo not shown) [Chloroquine] | 126 ± 44.8 | 89.7 ± 4.4% of untreated control | 81 ± 17.1% of untreated control | – | – | –
33 | C[C@H]1CCC/C=C/[C@@H]2C[C@H](O)C[C@H]2[C@H](O)/C=C/C(=O)O1 [Brefeldin A] | 124 ± 25 | – | – | – | – | ZIKV SPH Relative Titer in C6/36 Cells (ZIKV SPH): did not alter viral titers; Vero Viability (Vero cells; 10 µM compound, 40 h, CellTiter-Glo, ± SEM, three independent trials, 10 µM): 17.0 ± 2.1% of untreated control; Vero Viability (Vero cells; 10 µM compound, 40 h, CellTiter-Glo, ± SEM, three independent trials, listed as brefeldin A, 10 µM): toxic; C6/36 Viability (C6/36 cells; 10 µM compound, 96 h, CellTiter-Glo, ± SEM, three independent trials, 10 µM): 91 ± 8.4% of untreated control; C6/36 Viability (C6/36 cells; 10 µM compound, 96 h, CellTiter-Glo, ± SEM, three independent trials, listed as brefeldin A, 10 µM): did not alter viral titers or cell viability
34 | COc1ccc(CCN(C)CCCC(C#N)(c2ccc(OC)c(OC)c2)C(C)C)cc1OC (stereo not shown) [Verapamil·HCl] | 89 ± 40.8 | 87.7 ± 0.9% of untreated control | 71 ± 2.9% of untreated control | – | – | –
35 | CC(C)Cn1cnc2c(N)nc3ccccc3c21 [Imiquimod] | 72.5 ± 18.4 | 91.3 ± 1.2% of untreated control | 37 ± 8.1% of untreated control | – | – | –
36 | Oc1c2ccccc2c2c3c(cccc13)N=N2 [SP600125] | 50.3 ± 19.8 | – | – | 66.0 ± 2.1% of untreated control | 132 ± 9% of untreated control | –
37 | C[C@H]1O[C@@H](n2cnc3c(N)ncnc32)C[C@@H]1O [2′,5′-Dideoxyadenosine] | 317 ± 162 | 95.0 ± 1.5% of untreated control | 118 ± 15% of untreated control | – | – | –
38 | C1COC(NC(C2CC2)C2CC2)=N1 [Rilmenidine] | 161 ± 58.1 | – | – | 97.0 ± 2% of untreated control | 79 ± 8.3% of untreated control | –
39 | Clc1cccc(Cl)c1N=C1NCCN1 [Clonidine·HCl] | 95.9 ± 53.4 | – | – | 97.7 ± 2.6% of untreated control | 69 ± 5.4% of untreated control | –
40 | C[C@@H]1C[C@@H]([C@H](O)CC2CC(=O)NC(=O)C2)C(=O)[C@@H](C)C1 [Cycloheximide] | 0 | 37.3 ± 6.2% of untreated control | 24 ± 3.5% of untreated control | – | – | –
